Test results published in patent publication US5670498A, “8-substituted styryl xanthine derivatives” (Kyowa Hakko Kogyo Co., Ltd., priority 1992, dated 1997).

How the values were obtained:
[1] = tested on: Clonidine-Induced Aggressive Behavior; assay: Effect on Clonidine-Induced Aggressive Behavior; type: in vivo, male ddY mice; conditions: 10 mg/kg po, clonidine 20 mg/kg ip
Experimental: Effect on Clonidine-Induced Aggressive Behavior The effect of a test compound on the aggressive behavior induced by intraperitoneal administration of clonidine was investigated [Eur. J. Pharmacol., 29, 374 (1968)]. The experiment was performed by using several groups of male ddY mice (weighing 20 to 25 g, Japan SLC), each group consisting of two mice. The test compound was suspended in injectable distilled water (Otsuka Pharmaceutical Co., Ltd.) containing Tween 80. Clonidine hydrochloride (Sigma Co.) was dissolved in physiological saline solution (Otsuka Pharmaceutical Co., Ltd.). The test compound suspension and the control suspension [injectable distilled water (Otsuka Pharmaceutical Co., Ltd.) containing Tween 80] were orally administered to separate groups of the mice (0.1 ml per 10 g of body weight). Sixty minutes after the oral administration of the test compound, clonidine hydrochloride (20 mg/kg) was intraperitoneally injected. The number of biting attacks during 30 minutes after clonidine treatment was counted. The effect of the compound was evaluated by comparing the average number of biting attacks of the test compound-administered groups with that of control groups (Student's t-test).

adenosine A2 receptor = biological target: T1, adenosine A2 receptor (Rattus norvegicus, UniProt P30543); assay: Adenosine A2 Receptor Binding Test (3H-CGS 21680, rat corpus striatum)
T1 construct: Corpus striatum of a rat was suspended in ice-cooled 50 mM Tris; from tissue; host or cells: rat corpus striatum (washed membrane suspension)
Experimental: Adenosine Receptor Antagonistic Activity (Adenosine A2 Receptor Binding Test)
Corpus striatum of a rat was suspended in ice-cooled 50 mM Tris hydroxymethyl aminomethane hydrochloride (Tris HCl) buffer (pH 7.7) by using Polytron homogenizer (manufactured by Kinematicas Co.). The suspension was centrifuged (50,000×g, 10 minutes), and the precipitate was suspended again in the same amount of 50 mM Tris HCl buffer. The suspension was centrifuged under the same conditions, and the final precipitate was suspended once again in 50 mM Tris HCl buffer containing 10 mM magnesium chloride and 0.02 unit/mg tissue of adenosine deaminase (manufactured by Sigma Co.) to give a tissue concentration of 5 mg (wet weight)/ml.
To 1 ml of the tissue suspension thus prepared were added 50 μl of a mixture of N-ethylcarboxamidoadenosine labeled with tritium (^3 H-NECA: 26 Ci/mmol, manufactured by Amersham Co.) (final concentration: 3.8 nM) and cyclopentyladenosine (CPA, manufactured by Sigma Co.) (final concentration: 50 nM), and 50 μl of a test compound. The resulting mixture was allowed to stand at 25° C. for 120 minutes and then rapidly filtered by suction through a glass fiber filter (GF/C, manufactured by Whatman Co.). The filter was immediately washed three times with 5 ml each of ice-cooled 50 mM Tris HCl buffer, and transferred to a vial, and a scintillator (EX-H by Wako Pure Chemical Industries, Ltd.) was added thereto. The radioactivity on the filter was determined with a liquid scintillation counter (manufactured by Packard instrument Co.).
The similar procedure as above was repeated to determine the radioactivity bound to the A2 receptors using 50 μl of CGS 21680 labeled with tritium {^3 H-2-[p-(2-carboxyethyl)phenethylamino]-5'-(N-ethylcarboxamide)adenosine: 40 Ci/mmol, manufactured by New England Nuclear Co. [J. Pharmacol. Exp. Ther., 251, 888 (1989)]} (final concentration: 4.0 nM) in place of 50 μl of the mixture of N-ethylcarboxamidoadenosine labeled with tritium (^3 H-NECA: 26 Ci/mmol, manufactured by Amersham Co.) (final concentration: 3.8 nM) and cyclopentyladenosine (CPA, manufactured by Sigma Co.) (final concentration: 50 nM).
The inhibition rate of the test compound against the binding of A2 receptors (^3 H-CGS 21680 binding) was calculated by the following equation: [formula]
The Ki values shown in the table were calculated by the following equation: [formula]

[2] = tested on: Haloperidol-Induced Catalepsy; assay: Effect on Haloperidol-Induced Catalepsy; type: in vivo, male ddY mice; conditions: 10 mg/kg po
Experimental: Effect on Haloperidol-Induced Catalepsy Parkinson's disease is a clinical syndrome caused by degeneration of nigrostriatal dopaminergic neurons. […] The experiment was performed by using several groups of 5-weeks-old male ddY mice (weighing 22 to 24 g, Japan SLC), each group consisting of 5 mice. Haloperidol (Janssen Pharmaceutica) suspended in 0.3% CMC was intraperitoneally administered to each mouse at a dose of 1.0 mg/kg. Test compounds were suspended in injectable distilled water (Otsuka Pharmaceutical Co., Ltd.) containing Tween 80 [polyoxyethylene (20) sorbitan monooleate]. L-DOPA (Kyowa Hakko Kogyo Co., Ltd.) and benserazide hydrochloride (Kyowa Hakko Kogyo Co., Ltd.) were suspended in 0.3% CMC. One hour after the haloperidol administration, the test compound suspensions and the control suspension [injectable distilled water (Otsuka Pharmaceutical Co., Ltd.) containing Tween 80] containing no test compound were orally administered to separate groups of the mice (0.1 ml per 10 g of body weight). One hour after the administration of the test compound, the forelimbs of each mouse and subsequently the hindlimbs of the same mouse were placed on a 4.5 cm-high, 1.0 cm-wide bar and catalepsy was estimated. […] The catalepsy score and the standard of judgment are shown below. […] The effect of the compounds was evaluated by the total of the catalepsy scores of five mice in each group (25 points at the full).

[3] = read-out: A2 Receptor Inhibition Rate

T1 sequence (P30543 whole entry): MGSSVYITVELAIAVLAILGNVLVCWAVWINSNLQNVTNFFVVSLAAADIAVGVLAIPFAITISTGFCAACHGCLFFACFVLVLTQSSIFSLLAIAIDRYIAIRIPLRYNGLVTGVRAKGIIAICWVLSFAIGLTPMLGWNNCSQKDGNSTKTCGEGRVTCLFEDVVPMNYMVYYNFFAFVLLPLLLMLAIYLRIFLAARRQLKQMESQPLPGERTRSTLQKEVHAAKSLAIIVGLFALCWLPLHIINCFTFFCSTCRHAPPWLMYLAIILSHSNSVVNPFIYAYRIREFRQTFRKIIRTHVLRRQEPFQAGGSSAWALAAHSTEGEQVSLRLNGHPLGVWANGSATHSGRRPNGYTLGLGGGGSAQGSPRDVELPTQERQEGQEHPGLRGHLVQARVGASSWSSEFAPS

SMILES: CCn1c(=O)c2c(nc(/C=C/c3cccc(C(C)=O)c3)n2C)n(CC)c1=O [Compound 24, (E)-8-(3-Acetylstyryl)-1,3-diethyl-7-methylxanthine]
- Number of the Attacks of Test Compound-Treated Group/Number of the Attacks of Control Group [1]: 5.3
- Number of the Biting Attacks (mean ± S.E.M.), Test Compound-Treated Group ([1]; 30 minutes, control 6.3 ± 2.09, p < 0.05): 33.1 ± 7.16
- Ki (adenosine A2 receptor; [3H]CGS 21680 (inhibition rates of the same line marked *)): 13 nM
- inhibition at 0.1 µM (adenosine A2 receptor; [3]): 85%
- inhibition at 1 µM (adenosine A2 receptor; [3]): 99%
- Total Score (catalepsy) ([2]; sum of five mice, 25 points at the full, control 25): 7
- inhibition in vivo at 10 mg/kg ([2]; Mus musculus, decrease in total score based on control group, read-out: Remission Rate): 72%
